Measured values reported in patent US20240287028A1, “HERBICIDAL PHENYLURACILS” (BASF SE, priority 2021, published 2024).

Columns and labels:
Assay in all cases: greenhouse herbicidal test, post-emergence treatment
Assay type in all cases: in vivo
Digitaria insularis = details: scale 0 to 100
Text: (§1) The culture containers used were plastic flowerpots containing loamy sand with approximately 3.0% of humus as the substrate. The seeds of the test plants were sown separately for each species.
(§2) For the pre-emergence treatment, the active ingredients, which had been suspended or emulsified in water, were applied directly after sowing by means of finely distributing nozzles. The containers were irrigated gently to promote germination and growth and subsequently covered with transparent plastic hoods until the test plants had rooted. This cover caused uniform germination of the test plants, unless this had been impaired by the active ingredients. For the post-emergence treatment, the test plants were first grown to a height of 3 to 15 cm, depending on the plant habit, and only then treated with the active ingredients which had been suspended or emulsified in water. For this purpose, the test plants were either sown directly and grown in the same containers, or they were first grown separately as seedlings and transplanted into the test containers a few days prior to treatment.
(§3) Depending on the species, the test plants were kept at 10-25° C. or 20-35° C., respectively. The test period extended over 2 to 3 weeks. During this time, the test plants were tended, and their response to the individual treatments was evaluated.
(§4) Evaluation was carried out using a scale from 0 to 100. 100 means no emergence of the test plants, or complete destruction of at least the aerial moieties, and 0 means no damage, or normal course of growth. A good herbicidal activity is given at values of at least 70 and a very good herbicidal activity is given at values of at least 85.

Erigeron canadensis = details: application rate 4 g/ha, scale 0 to 100
Text: as §1, §2, §3, §4

Setaria faberi = details: scale 0 to 100
Text: as §1, §2, §3, §4

Structure (SMILES) | damages, unwanted plants TRCIN (Digitaria insularis; application rate 2 g/ha) | damages, unwanted plants TRCIN (Digitaria insularis; application rate 4 g/ha) | damages, unwanted plants ERICA (Erigeron canadensis) | damages, unwanted plants SETFA (Setaria faberi; application rate 1 g/ha) | damages, unwanted plants SETFA (Setaria faberi; application rate 2 g/ha) | damages, unwanted plants SETFA (Setaria faberi; application rate 4 g/ha)
CCOC(=O)COc1ncccc1Oc1cc(-n2c(=O)cc(C(F)(F)F)n(C)c2=O)c(F)cc1Cl [cmpd I-2-8] | 90 | 90 | 65 | 70 | 85 | 90
CCOC(=O)COc1ncccc1Oc1cc(-n2c(=O)cc(C(C)(F)F)n(C)c2=O)c(F)cc1Cl [Example 1.1, Ethyl 2-[[3-[2-chloro-5-[4-(1,1-difluoroethyl)-3-methyl-2,6-dioxo-pyrimidin-1-yl]-4-fluoro-phenoxy]-2-pyridyl]oxy]acetate] | 95 | 100 | 100 | 80 | 90 | 95
